This is an account of results in paper PMC4994268, “4-aroylpiperidines and 4-(α-hydroxyphenyl)piperidines as selective sigma-1 receptor ligands: synthesis, preliminary pharmacological evaluation and computational studies” (Chemistry Central Journal, 2016).

Where a name gives a salt, the structure may show the parent alone.

Data set [1] concerns the target σ1 receptor. The following applies: reference ligands in Table 1; cited from earlier work.
Data set [2] deals with T1, σ1 receptor (Rattus norvegicus, UniProt Q9R0C9).
T1 construct: Rat liver membrane homogenates (~300 μg protein) were diluted with 50 mM Tris–HCl buffer; from tissue; host or cells: rat liver membrane homogenates
The data set is described as follows: Sigma receptor binding, σ1 sites, [3H](+)-pentazocine competition in rat liver membrane homogenates. The following applies: for Ki: HCl salts tested, rat liver membrane homogenates. The protocol: (§1) These experiments were performed as described by Jinbin et al. with some modification. Different concentrations of test samples were achieved by diluting stock solutions with a solution containing 50 mM Tris–HCl, 150 mM NaCl and 100 mM EDTA at pH 7.4. Rat liver membrane homogenates (~300 μg protein) were diluted with 50 mM Tris–HCl buffer, pH 8.0 and incubated in a total volume of 150 μL with the radioligand at 25 °C in 96 well plates. The incubation time was 60 min for test compounds and 120 min for [^3H] DTG and [^3H] (+)-pentazocine.
(§2) It is worth mentioning that, this was done one at a time. The final concentration of the radioligand in each assay was ~1 nM for [^3H] test compounds and ~5 nM for [^3H]
(§3) The reaction was started by adding 0.2 mL of the membrane preparation to the 50 mM Tris–HCl (pH 8.0) buffer containing ^3H-labeled ligand with a final concentration of 5 nM and cold ligand ranging from 0.01 to 0.1 mM in a final volume of 1.0 mL. Incubations were carried out at […] in the binding study with [^3H] […] DTG. Inhibitor concentrations ranging from 0.1 nM to 10 μM were added to acquire the inhibition curves. After the reaction was completed, the samples were harvested, washed three times, and the bound radioactivity counted and analyzed.

Data set [3] concerns σ1 receptor. Described as above. The following applies: ratio of Ki σ2 to Ki σ1. The protocol: as §1, §2, §3
In a further data set the target is T2, σ2 receptor (Rattus norvegicus, UniProt Q5U3Y7).
T2 construct: Rat liver membrane homogenates (~300 μg protein) were diluted with 50 mM Tris–HCl buffer; from tissue; host or cells: rat liver membrane homogenates
T2 sequence (Q5U3Y7 1-176): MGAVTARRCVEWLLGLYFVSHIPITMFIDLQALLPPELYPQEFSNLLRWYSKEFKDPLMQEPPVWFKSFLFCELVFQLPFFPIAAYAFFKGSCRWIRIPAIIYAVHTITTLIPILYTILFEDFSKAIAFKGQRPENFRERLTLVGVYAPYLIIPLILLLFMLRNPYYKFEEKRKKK
The data set can be described thus: Sigma receptor binding, σ2 sites, [3H]DTG competition with σ1 sites masked by (+)-pentazocine, rat liver membrane homogenates. The settings on record: HCl salts tested. The protocol:
as §1
It is worth mentioning that, this was done one at a time. The final concentration of the radioligand in each assay was ~1 nM for [^3H] test compounds and ~5 nM for [^3H] […]

T1 sequence (Q9R0C9 whole entry): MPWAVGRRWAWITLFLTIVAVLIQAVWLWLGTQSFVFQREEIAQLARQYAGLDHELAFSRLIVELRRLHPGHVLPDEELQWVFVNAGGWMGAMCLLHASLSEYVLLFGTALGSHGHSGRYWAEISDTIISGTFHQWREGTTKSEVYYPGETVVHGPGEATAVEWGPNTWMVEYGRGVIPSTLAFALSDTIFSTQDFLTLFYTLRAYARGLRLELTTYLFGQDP

As for `Cc1ccc(CN2CCC(C(=O)c3ccc(F)cc3)CC2)cc1` (as salt: HCl) [Compound 7f, 4-(4-fluorobenzoyl)-1-[(4-methylphenyl)methyl]piperidine], the melting point lay in the range of 108 to 110 °C.

As for `c1ccc(CN2CCC3(CCc4ccccc4S3)CC2)cc1` [Spipethiane, 1′-Benzyl-3,4-dihydrospiro[2H-1-benzothiopyran-2,4′-piperidine]], the inhibition constant (Ki) on σ1 receptor [1] was 0.5 nM.

Take `O=C(c1ccc(F)cc1)C1CCN(Cc2ccc(F)cc2)CC1` [Compound 7a, 4-(4-fluorobenzoyl)-1-[(4-fluorophenyl)methyl]piperidine]: the Ki at σ1 receptor [2] turned out to be 2.96 ± 0.5 nM; at σ2 receptor, 222 ± 8 nM. For the same compound, the “Selectivity ratio (Ki σ2/σ1)” value in the data set with σ1 receptor [3] stood at 75.

`Cc1ccc(CN2CCC(C(=O)c3ccc(F)cc3)CC2)cc1` [Compound 7f, 4-(4-fluorobenzoyl)-1-[(4-methylphenyl)methyl]piperidine]: the Ki was 11.6 ± 0.26 nM at σ1 receptor [2] and 151 ± 7.79 nM at σ2 receptor. In the data set on σ1 receptor [3], the “Selectivity ratio (Ki σ2/σ1)” value worked out at 13.

`O=[N+]([O-])c1ccccc1CN1CCC(C(NCc2cccc(Br)c2)c2ccc(F)cc2)CC1` (stereo not drawn) [Compound 9d, [(3-bromophenyl)methyl][(4-fluorophenyl)({1-[(2-nitrophenyl)methyl]piperidin-4-yl})methyl]amine]: the results for the Ki on σ1 receptor [2] and at σ2 receptor were > 434 nM and > 854 nM, respectively.

With `OC(c1ccc(F)cc1)C1CCN(Cc2ccc(Cl)c(Cl)c2)CC1` (stereo not drawn) [Compound 8b, {1-[(3,4-dichlorophenyl)methyl]piperidin-4-yl}(4-fluorophenyl)methanol], the Ki at σ1 receptor [2] was > 434 nM; at σ2 receptor, > 854 nM.

Turning to `O=[N+]([O-])c1ccccc1CN1CCC(C(O)c2ccc(F)cc2)CC1` (stereo not drawn) [Compound 8d, (4-fluorophenyl)({1-[(2-nitrophenyl)methyl]piperidin-4-yl})methanol], the Ki at σ1 receptor [2] is 527 ± 69 nM; on σ2 receptor, > 854 nM. Moreover, the “Selectivity ratio (Ki σ2/σ1)” value in the data set on σ1 receptor [3] was 2.

With `OC(c1ccc(F)cc1)C1CCN(Cc2ccc(Br)cc2)CC1` (stereo not drawn) [Compound 8e, {1-[(4-bromophenyl)methyl]piperidin-4-yl}(4-fluorophenyl)methanol], the values for the Ki at σ1 receptor [2] and on σ2 receptor were 5.22 ± 0.3 nM and > 854 nM, respectively. Further, the “decrease in σ1 binding affinity on reduction of the carbonyl to the corresponding alcohol” value on σ1 receptor [2] (alcohol 8 versus ketone 7) is given as “fivefold”. For the same compound, the “Selectivity ratio (Ki σ2/σ1)” value in the data set with σ1 receptor [3] is reported as > 164.

Consider `OC(c1ccc(F)cc1)C1CCN(Cc2ccc(F)cc2)CC1` (stereo not drawn) [Compound 8a, (4-fluorophenyl)({1-[(4-fluorophenyl)methyl]piperidin-4-yl})methanol], for which the Ki was 1.41 ± 0.22 nM at σ1 receptor [2] and > 854 nM on σ2 receptor. The “increase in σ1 receptor affinity on reduction of the carbonyl compound to the corresponding alcohol” value at σ1 receptor [2] (alcohol 8 versus ketone 7) is on record as “twofold”. Besides, in the data set with σ1 receptor [3], the “Selectivity ratio (Ki σ2/σ1)” value is given as > 606.

For `O=C(c1ccc(F)cc1)C1CCN(Cc2ccc(Cl)cc2)CC1` [Compound 7c, 1-[(4-chlorophenyl)methyl]-4-(4-fluorobenzoyl)piperidine], the Ki amounted to 5.98 ± 0.41 nM at σ1 receptor [2] and 554 ± 34.2 nM on σ2 receptor. Also, in the data set with σ1 receptor [3], the “Selectivity ratio (Ki σ2/σ1)” value came out at 93.

For `O=C(c1ccc(F)cc1)C1CCN(Cc2ccccc2[N+](=O)[O-])CC1` (as salt: HCl) [Compound 7d, 4-(4-fluorobenzoyl)-1-[(2-nitrophenyl)methyl]piperidine], the melting point was 95 to 97 °C.

In the case of `O=C(c1ccc(F)cc1)C1CCN(Cc2ccc(Br)cc2)CC1` [Compound 7e, 1-[(4-bromophenyl)methyl]-4-(4-fluorobenzoyl)piperidine], the inhibition constant Ki on σ1 receptor [2] was 1.4 ± 0.5 nM; at σ2 receptor, > 854 nM. For the same compound, in the data set with σ1 receptor [3], the “Selectivity ratio (Ki σ2/σ1)” value was > 610.

For the compound `Cc1ccc(CN2CCC(C(O)c3ccc(F)cc3)CC2)cc1` (stereo not drawn) [Compound 8f, (4-fluorophenyl)({1-[(4-methylphenyl)methyl]piperidin-4-yl})methanol], the Ki on σ1 receptor [2] is 1.45 ± 0.4 nM; on σ2 receptor, > 854 nM. At σ1 receptor [2] (alcohol 8 versus ketone 7), the “increase in σ1 receptor affinity on reduction of the carbonyl compound to the corresponding alcohol” value came out at 11 fold. Further, in the data set with σ1 receptor [3], the “Selectivity ratio (Ki σ2/σ1)” value is reported as > 589.

With `Fc1ccc(C(NCc2cccc(Br)c2)C2CCN(Cc3ccc(Br)cc3)CC2)cc1` (stereo not drawn) [Compound 9e, [(3-bromophenyl)methyl]({1-[(4-bromophenyl)methyl]piperidin-4-yl}(4-fluorophenyl)methyl)amine], the inhibition constant (Ki) is 2.95 ± 0.57 nM at σ1 receptor [2] and > 854 nM at σ2 receptor. In addition, in the data set on σ1 receptor [3], the “Selectivity ratio (Ki σ2/σ1)” value was > 289.

For `OC(c1ccc(F)cc1)C1CCN(Cc2ccc(Cl)cc2)CC1` (stereo not drawn) [Compound 8c, {1-[(4-chlorophenyl)methyl]piperidin-4-yl}(4-fluorophenyl)methanol], the Ki is 2.49 ± 0.24 nM at σ1 receptor [2] and > 854 nM on σ2 receptor. Besides, the “increase in σ1 receptor affinity on reduction of the carbonyl compound to the corresponding alcohol” value on σ1 receptor [2] (alcohol 8 versus ketone 7) was “twofold”. Further, the “Selectivity ratio (Ki σ2/σ1)” value in the data set with σ1 receptor [3] is > 343.

`O=C(c1ccc(F)cc1)C1CCN(Cc2ccc(Cl)c(Cl)c2)CC1` [Compound 7b, 1-[(3,4-dichlorophenyl)methyl]-4-(4-fluorobenzoyl)piperidine]: the inhibitory constant (Ki) on σ1 receptor [2] was > 434 nM; at σ2 receptor, > 854 nM.

On to `O=C(c1ccc(F)cc1)C1CCN(Cc2ccccc2[N+](=O)[O-])CC1` [Compound 7d, 4-(4-fluorobenzoyl)-1-[(2-nitrophenyl)methyl]piperidine], for which the results for the Ki at σ1 receptor [2] and on σ2 receptor were > 434 nM and > 854 nM, respectively.

For orientation: melting point means the temperature of the solid-liquid transition. A word on the Ki: it is the equilibrium dissociation constant of an inhibitor or competing ligand from its target.
